Patent publication US20220274980A1, “PHARMACOLOGICAL INHIBITORS OF THE ENL YEATS DOMAIN” (priority 2019, published 2022)
Where two headings read alike, the source gives them in different places.

Columns and labels:
[1] = molecular target: T1, ENL YEATS domain (association with H3K27cr) (Homo sapiens, UniProt Q03111); test: biochemical
T1 sequence (Q03111 1-148): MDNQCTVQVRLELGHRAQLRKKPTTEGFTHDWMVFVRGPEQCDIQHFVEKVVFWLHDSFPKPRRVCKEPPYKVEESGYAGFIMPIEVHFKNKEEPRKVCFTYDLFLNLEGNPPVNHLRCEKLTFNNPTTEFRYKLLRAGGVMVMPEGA
Procedure: (§1) Protein Production. Double stranded DNA fragments encoding the protein sequence of ENL YEATS(1-148) were synthesized (IDT DNA) for assembly-based cloning into a modified expression vector backbone derived from pET21a (Novagen). The protein was fused to a StrepII-SUMO and 6×His tag on the amino and carboxy terminus, respectively. Transformed BL21(DE3) cells (New England Biolabs) were grown at 37° C. in 2×YT growth medium to an OD600 of 0.6. Protein expression was induced at 25° C. with the addition of isopropyl-β-D-thiogalactopyranoside (IPTG) to a final concentration of 0.4 mM. The culture was harvested by centrifugation following a 20-hour incubation and subsequently purified by immobilized metal affinity chromatography. Cells were resuspended 50 mM Tris-HCl pH 8.0, 300 mM NaCl, 10% glycerol, 10 mM imidazole, 1 mM DTT containing Complete EDTA-free protease inhibitor (Roche) and lysed by two passes through a MicroFluidizer at 10,000 psi. The lysate was clarified by centrifugation at 16,000 rpm for 30 minutes at 4° C. The supernatant was passed over NiNTA agarose (QIAGEN) and the protein was eluted in 50 mM Tris-HCl pH 8.0, 300 mM NaCl, 10% glycerol, 250 mM imidazole, 1 mM DTT. Fractions containing the ENL YEATS(1-148) fusion protein were buffer exchanged into 100 mM Tris-HCl pH 8.0, 150 mM NaCl, 1 mM EDTA, 1 mM DTT using PD10 desalting columns (GE Life Sciences). Ulp1 protease was added to cleave the StrepII-SUMO fusion and the reaction mixture was incubated overnight at 4° C. The cleavage reaction mixture was loaded onto a StrepTrap column (GE Life Sciences) and ENL YEATS(1-148) was recovered in the flow through. BRD4 BD1 was purchased from Cayman (Cat. No. 11720).
(§2) Homogenous time-resolved FRET (HTRF) histone-binding assays. Both HTRF assays were performed by combining recombinant protein and synthetic histone peptide in assay buffer (25 mM HEPES pH 7, 20 mM NaCl, 0.2% Pluronic F-127, and 0.05% BSA) with 1 nM LanthaScreen Eu-anti-His Tag antibody (ThermoFisher, Cat. No, PV5597) and 8.9 nM SureLight allophycocyanin-streptavidin (Perkin Elmer, APC-SA, Cat. No. CR130-100). ENL YEATS was used at 5 nM and BRD4 BD1 was used at 10 nM. ENL assays were performed with H3(13-32)K27cr (13.3 and 100 nM, respectively), custom synthesized at ABclonal (N-terminal biotin, C-terminal amide); BRD4 BD1 assay was performed with 13.3 nM tetra-acetylated H4 (BioVision, Cat. No. 7144-01). Once all reagents were combined (with or without peptide), 10 μL was dispensed per well into black 384-well low-volume plates (Corning, Cat. No. 3821) and drug was added by pin tool transfer (Biomek FX). Assays were incubated for 2 or more hours before measurement of HTRF signal on a PHERAstar plate reader (BMG Labtech; simultaneous dual emission; excitation=337 nm, emission 1=665 nm, emission 2=620 nm). HTRF signal (ratio of emission 1 to emission 2) from vehicle-treated wells (maximum signal) and no-peptide-control wells (minimum signal) were used to calculate percent inhibition for drug-treated wells.

BRD4 bromodomain 1 (BD1) = molecular target: T2, BRD4 bromodomain 1 (BD1) (Homo sapiens, UniProt O60885); test: BRD4 (BD1)-H4 tetra-acetylated HTRF histone-binding assay
T2 construct: Selectivity against BRD4 bromodomain 1 (BD1), measured by HTRF; His; purchased Cayman 11720
Procedure: as §1, §2

[2] = ENL (YEATS)-H3K27cr HTRF (IC50, μM), Table 1
[3] = ENL (YEATS)-H3K27cr HTRF (IC50, μM), Table 2
[4] = read-out: ENL (YEATS)-H3K27cr HTRF (IC50), Table 1

SMILES | IC50 [1, 2] [µM] | IC50 [1, 3] [µM] | IC50 (BRD4 bromodomain 1 (BD1); Table 1) [µM] | IC50 (BRD4 bromodomain 1 (BD1); Table 2) [µM] | IC50 [1, 4] [µM]
CC(C)NC(=O)c1ccc2nc(-c3ccccc3C#N)cn2c1 [Compound 89] | 16.7 | 16.7 |  |  | 
O=C(NC1CCC(O)CC1)c1ccc2nc(-c3ccccc3)cn2c1 (stereo not shown) [Compound 31] | 7 | 7 |  |  | 
CC(C)NC(=O)c1ccc2nc(-c3cccc(NS(=O)(=O)NCCc4cccs4)c3)cn2c1 [Compound 49] | 1.36 | 1.36 | > 50 | > 50 | 
CC(C)NC(=O)c1ccc2nc(-c3cccc(NS(=O)(=O)NCCCn4ccnc4)c3)cn2c1 [Compound 67] | 0.33 | 0.33 | > 50 | > 50 | 
CC(C)NC(=O)c1ccc2nc(-c3cccc(NS(=O)(=O)NCCCC(=O)O)c3)cn2c1 [Compound 60] | 0.69 | 0.69 | > 50 | > 50 | 
CC(C)NC(=O)c1ccc2nc(-c3cccc(NS(=O)(=O)NC[C@H]4CC[C@H](C(=O)O)CC4)c3)cn2c1 [Compound 65] | 0.32 | 0.32 | > 50 | > 50 | 
CC(C)NC(=O)c1ccc2nc(-c3cccc(N=S(=O)(F)F)c3)cn2c1 [Compound 40, (3-(6-(isopropylcarbamoyl)imidazo[1,2-a]pyridin-2-yl)phenyl)sulfurimidoyl difluoride] |  |  | > 50 | > 50 | 3.6
CC(C)NC(=O)c1ccc2nc(-c3cccc(NS(=O)(=O)NCCC(N)=O)c3)cn2c1 [Compound 56] | 0.52 | 0.52 | > 50 | > 50 | 
CC(C)NC(=O)c1ccc2nc(-c3cccc(NS(=O)(=O)NCCc4ccc(N)cc4)c3)cn2c1 [Compound 58] | 0.32 | 0.32 | > 50 | > 50 | 
O=C(NC1CCC(O)CC1)c1ccc2nc(-c3ccc(F)cc3)cn2c1 (stereo not shown) [Compound 32] | 7 | 7 |  |  | 
CC(C)NC(=O)c1ccc2nc(-c3cccc([N+](=O)[O-])c3)cn2c1 [Compound 36] | 3.7 | 3.7 | > 50 | > 50 | 
COC(=O)[C@H]1CCCN1S(=O)(F)=Nc1cccc(-c2cn3cc(C(=O)NC(C)C)ccc3n2)c1 (stereo partly shown) [Compound 55] | 0.95 | 0.95 | > 50 | > 50 | 
CC(NC(=O)c1ccc2nc(-c3ccccc3)cn2c1)c1ccccn1 (stereo not shown) [Compound 30] | 6 | 6 |  |  | 
CC(C)NC(=O)c1ccc2nc(-c3cccc(NS(=O)(=O)NCCCCCCCC(=O)O)c3)cn2c1 [Compound 63] | 0.46 | 0.46 | > 50 | > 50 | 
COC(=O)[C@@H](Cc1c[nH]c2ccccc12)NS(=O)(=O)Nc1cccc(-c2cn3cc(C(=O)NC(C)C)ccc3n2)c1 [Compound 54] | 0.87 | 0.87 | > 50 | > 50 | 
O=C(NC1C2CC1C2)c1ccc2nc(-c3ccccc3)cn2c1 (stereo not shown) [Compound 125] |  |  |  |  | > 50
CC(C)NC(=O)c1ccc2nc(-c3cccc(NS(=O)(=O)NCCCCCCC(=O)O)c3)cn2c1 [Compound 61] | 0.36 | 0.36 | > 50 | > 50 | 
CC(C)NC(=O)c1ccc2nc(-c3cccc(NS(=O)(=O)NCCCCO)c3)cn2c1 [Compound 62] | 0.3 | 0.3 | > 50 | > 50 | 
CC(C)NC(=O)c1ccc2nc(-c3cccc(NS(=O)(=O)NCCOCCO)c3)cn2c1 [Compound 42] | 0.55 | 0.55 | > 50 | > 50 | 
CC(C)NC(=O)c1ccc2nc(-c3cccc(NS(=O)(=O)NCCCN4CCCC4=O)c3)cn2c1 [Compound 53] | 0.88 | 0.88 | > 50 | > 50 | 
CC(C)NC(=O)c1ccc2nc(-c3cccc(N)c3)cn2c1 [Compound 38] | 10.7 | 10.7 | > 50 | > 50 | 
CC(C)NC(=O)c1ccc2nc(-c3cccc(NS(=O)(=O)NCCCCCC#N)c3)cn2c1 [Compound 59] | 0.55 | 0.55 | > 50 | > 50 | 
COc1ccc(CNS(=O)(=O)Nc2cccc(-c3cn4cc(C(=O)NC(C)C)ccc4n3)c2)c(OC)c1 [Compound 50] | 0.52 | 0.52 | > 50 | > 50 | 
CC(C)NC(=O)c1ccc2nc(-c3ccccn3)cn2c1 [Compound 91] | 14.8 | 14.8 |  |  | 
O=C(NCC1CC1)c1ccc2nc(-c3ccccc3)cn2c1 [Compound 29] | 6 | 6 |  |  | 
O=C(NC1CC1)c1ccc2nc(-c3ccccc3)cn2c1 [Compound 33] | 9 | 9 |  |  | 
CC(C)NC(=O)c1ccc2nc(-c3ccc(CN)cc3)cn2c1 [Compound 92] | 3.72 | 3.72 |  |  | 

Results, then the compound that gave them:

IC50 [1, 2] [µM] | IC50 [1, 3] [µM] | IC50 (BRD4 bromodomain 1 (BD1); Table 1) [µM] | IC50 (BRD4 bromodomain 1 (BD1); Table 2) [µM] | IC50 [1, 4] [µM] | SMILES
5 | 5 |  |  |  | CCc1ccc(-c2cn3cc(C(=O)NC4CC4)ccc3n2)cc1 [Compound 28]
0.55 | 0.55 | > 50 | > 50 |  | CC(C)NC(=O)c1ccc2nc(-c3cccc(NS(=O)(=O)NCCCN4CCOCC4)c3)cn2c1 [Compound 45]
4 | 4 | > 50 | > 50 |  | CC(C)NC(=O)c1ccc2nc(-c3ccccc3)cn2c1 [Compound 1]
0.61 | 0.61 | > 50 | > 50 |  | CC(C)NC(=O)c1ccc2nc(-c3cccc(N=S(=O)(F)N4CCC[C@@H]4C(=O)O)c3)cn2c1 (stereo partly shown) [Compound 68]
0.51 | 0.51 | > 50 | > 50 |  | CC(C)NC(=O)c1ccc2nc(-c3cccc(NS(=O)(=O)NCCc4ccc(S(N)(=O)=O)cc4)c3)cn2c1 [Compound 48]
1.02 | 1.02 | > 50 | > 50 |  | CC(C)NC(=O)c1ccc2nc(-c3cccc(NS(=O)(=O)NCc4ccc(F)cc4)c3)cn2c1 [Compound 51]
7.8 | 7.8 | > 50 | > 50 |  | CC(C)NC(=O)c1ccc2nc(-c3ccc(N)cc3)cn2c1 [Compound 39]
26.6 | 26.6 |  |  |  | CC(C)NC(=O)c1ccc2nc(Cn3ccnc3)cn2c1 [Compound 90]
0.39 | 0.39 | > 50 | > 50 |  | CNS(=O)(=O)Nc1cccc(-c2cn3cc(C(=O)NC(C)C)ccc3n2)c1 [Compound 52]
0.63 | 0.63 | > 50 | > 50 |  | CC(C)NC(=O)c1ccc2nc(-c3cccc(NS(=O)(=O)NCCC(=O)O)c3)cn2c1 [Compound 66]
0.47 | 0.47 |  |  |  | CC(C)NC(=O)c1ccc2nc(-c3cccc(NS(=O)(=O)NCCCCO)c3)cn2c1 [Compound 43]
10 | 10 |  |  |  | Cc1ccc(-c2cn3cc(C(=O)NC(C)c4cccnc4)ccc3n2)cc1 (stereo not shown) [Compound 35]
7.05 | 7.05 |  |  |  | Cc1cc(-c2cn3cc(C(=O)NC(C)C)ccc3n2)ccn1 [Compound 88]
